Article PMC5922347, “Application of polymersomes engineered to target p32 protein for detection of small breast tumors in mice” (Oncotarget, 2018)
“And” between values parts separate entries of the source, which are not always exact repeats. Equal entries are not always repeated.

What was measured:
[1] = DLS size and polydispersity of polymersomes; format: physicochemical; conditions: 3 independent measurements
Description: (§1) DLS and Z-potential measurements (Zetasizer Nano ZS, Malvern Instruments, USA) were used to assess the average size, polydispersity, and surface charge of polymersome preparations. The size was measured at a concentration of 1 mg polymer/mL in PBS (10 mM of phosphate and 137 mM of NaCl). The z-potential was measured at 0.2 mg of polymer/mL in NaCl 10 mM). TEM was used to assess the size and morphology of assembled vesicles. Briefly, polymersomes were deposited from a water solution onto copper grids at 1mg/mL, stained with 0.75% phosphotungstic acid (pH 7), air-dried, and imaged by TEM (Tecnai 10, Philips, Netherlands). The number of polymersomes in the suspension was measured using the ZetaWiew instrument (Particle Metrix GmbH, Germany).

[2] = Z-potential measurement of polymersomes; format: physicochemical; conditions: 0.2 mg polymer/mL in NaCl 10 mM; 3 independent measurements
Description: as §1

[3] = system: human recombinant p32 protein; assay: Binding of radiolabeled polymersomes to p32-coated magnetic beads; conditions: p32-coated Ni-NTA magnetic beads, 1 h, room temperature, 1% BSA, gamma counter, N=3
Description: Recombinant hexahistidine–tagged p32 was bacterially expressed and purified as previously described. For protein binding assays, Ni-NTA magnetic agarose beads (Qiagen, Germany) in binding buffer (50 mM Tris pH 7.4, 150 mM NaCl, 5mM imidazole) were coated with p32 protein at 15 μg of protein/10μL beads. Radiolabeled polymersomes were incubated with the p32-coated beads in binding buffer containing 1% BSA at room temperature for 1 h. The magnetic beads were washed with binding buffer and resuspended in a final volume of 1mL of binding buffer. The radioactivity of each sample was quantified by automatic gamma counter (2470 Wizard 2, Perkin Elmer).

NRP-1 [4] = biological target: T1, NRP-1 (Homo sapiens, UniProt O14786); assay: Binding of radiolabeled polymersomes to NRP1-coated magnetic beads; conditions: 1 h incubation, gamma counter, N=3
T1 sequence (O14786 22-923): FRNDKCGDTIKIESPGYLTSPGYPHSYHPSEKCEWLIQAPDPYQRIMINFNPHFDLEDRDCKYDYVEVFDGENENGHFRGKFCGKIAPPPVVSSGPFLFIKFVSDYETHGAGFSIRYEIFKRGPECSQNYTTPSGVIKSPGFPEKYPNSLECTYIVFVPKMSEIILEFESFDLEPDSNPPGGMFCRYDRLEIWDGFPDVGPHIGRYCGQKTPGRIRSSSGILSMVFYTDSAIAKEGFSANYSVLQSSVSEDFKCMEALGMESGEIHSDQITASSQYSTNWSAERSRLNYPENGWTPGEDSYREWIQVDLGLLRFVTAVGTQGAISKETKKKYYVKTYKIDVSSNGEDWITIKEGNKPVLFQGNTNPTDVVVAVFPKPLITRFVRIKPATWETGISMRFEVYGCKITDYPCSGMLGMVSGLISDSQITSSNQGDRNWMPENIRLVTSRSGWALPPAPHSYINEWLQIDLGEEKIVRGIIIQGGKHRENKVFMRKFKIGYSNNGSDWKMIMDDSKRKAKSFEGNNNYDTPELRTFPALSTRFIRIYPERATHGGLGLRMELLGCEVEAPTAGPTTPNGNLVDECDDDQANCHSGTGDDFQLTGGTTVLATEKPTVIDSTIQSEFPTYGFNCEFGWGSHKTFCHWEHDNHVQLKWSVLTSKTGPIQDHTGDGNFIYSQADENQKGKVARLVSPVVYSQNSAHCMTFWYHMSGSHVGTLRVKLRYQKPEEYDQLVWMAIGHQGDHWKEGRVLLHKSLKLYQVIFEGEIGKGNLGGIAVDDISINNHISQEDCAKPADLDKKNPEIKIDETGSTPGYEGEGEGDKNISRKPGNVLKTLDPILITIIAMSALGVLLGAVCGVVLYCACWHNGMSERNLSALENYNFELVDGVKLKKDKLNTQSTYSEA

[5] = system: orthotopic 4T1 breast tumors; assay: In vivo PET-CT imaging of radiolabeled polymersomes in 4T1 tumor mice; design: species or system Balb/c mice
Description: (§2) For tumor induction, 1 million 4T1 cells in 50μL of PBS were orthotopically implanted in the mammary gland of Balb/c mice (Charles River Laboratories, Spain). After 3 days, when the tumor volume had reached ∼18 mm^3, the mice were injected in tail vein with 3.7-7.4MBq of radiolabeled polymersomes (1mg polymer, 100 μL, N=5 mice) and subjected to PET-CT scans. During the scan acquisitions the mice were kept anesthetized with 1.5−2% isofluorane blended with O2. The PET-CT scans were performed at 10 min, 2, 6, 12, 24, and 48 h using the Argus PET-CT scanner (Sedecal, Molecular Imaging, Spain). First, PET scans were acquired using the following acquisition protocol: whole body emission scan, 2 beds, 10 min of total acquisition time for the scans at 10 min, 2, 6, 12, and 24 h post-injection and 20 min for the 48 h time point. The acquisition method was static, using 400-700KeV energetic window, FBP reconstruction algorithm, with correction for scatter coincidences. For the CT scans the used current was 140μA, 40kV of voltage, rotation of 360 degrees, 4 shoots, 1 bed, acquisition time of 6 min, and a reconstruction binning of 2. After 48 h of radiolabeled polymersome injection the mice were sacrificed and the tumor, blood, and organs were excised and further used for biodistribution studies. The PET-CT images were processed with the Medical Image Data Examiner AMIDE software. The CT and PET images were overlaid, the tumor volume was manually extracted from the CT scans and the same ROI was applied in the PET images, averaged, and expressed as percentage of injected dose per cubic centimeter of tissue (ID/cc). For the rendered 3D PET-CT images, PMOD image analysis software (PMOD Technologies Ltd, Zürich, Switzerland) was used. A 3D Gauss Filter of 1.5x1.5x1.5mm was applied to the PET image in order to increase the signal to noise ratio for 3D visualization.

[6] = system: orthotopic 4T1 breast tumors; assay: Ex vivo biodistribution by gamma counter in 4T1 tumor mice; design: species or system Balb/c mice; conditions: for Increase in tumor accumulation by LinTT1 functionalization: versus untargeted polymersomes, 48 h, % ID/g
Description: as §2
(§3) For biodistribution studies, the tumor, blood, and organs were weighed and the radioactivity was measured using the automatic gamma counter. A standard curve was generated using ^124I to determine the relationship between cpm and Bq. The biodistribution was expressed as percentage of injected dose per gram of tissue (ID/g). To determine the elimination rate of polymersomes, the radioactive signal in the whole mouse body was measured from the PET images at 10 min, 2, 6, 12, 24, and 48 h post-injection and normalized by the signal at 10 min post-injection. The elimination rate was expressed as signal in mouse x 100 divided by the signal at time zero.

[7] = Elimination rate of 124I from whole-body PET signal; design: species or system Balb/c mice; conditions: mouse, in vivo
Description: as §3

NRP-1 [8] = biological target: T1, NRP-1; conditions: unless proteolytically processed by uPA; cited from earlier work
[9] = 48 h after i.v. injection, gamma counter

Cys-Tyr-Ahx-LinTT1 [LinTT1-Tyr-PS, PEG-PCL polymersomes functionalized with Cys-Tyr-Ahx-LinTT1 peptide]
Pdi ([1]; 1 mg polymer/mL in PBS): 0.15
Size (hydrodynamic diameter) ([1]; intensity distribution, 1 mg polymer/mL in PBS (10 mM phosphate, 137 mM NaCl)): ~130 nm and 124 ± 62 nm
Z-pot [2]: -0.1 ± 4 mV

Cys-Tyr-Ahx-LinTT1 [LinTT1-Tyr-^124I-PS, 124I-radiolabeled PEG-PCL polymersomes functionalized with Cys-Tyr-Ahx-LinTT1 peptide]
Increase in binding to p32 beads compared to non-targeted polymersomes [3]: ~10 fold
Binding to NRP-1 (NRP-1 [4]): did not bind
AUC in tumor, increase over non-targeted polymersomes ([5]; AUC of % ID/cc tumor versus time, 10 min to 48 h, N=5 mice): ~60%
Tumor accumulation at 48 h ([5]; PET quantification, 48 h after i.v. injection, N=5 mice, SEM): 12±0.9 ID/cc
Tumor accumulation at 24 h, increase over untargeted polymersomes ([5]; PET, 24 h after injection, N=5 mice): 67%
Accumulation in tumor at 24 h ([5]; i.v., 1 mg polymer, tumors ~20 mm^3, 24 h after administration, PET quantification): up to 20 % ID/cc
Tumor accumulation (no time stated) ([5]; i.v., PET quantification, discussion statement): > 20 % ID/cc
Accumulation in sentinel lymph node relative to Tyr-124I-PS [6, 9]: more than 2 fold
Ratio of % ID/g in tumor to liver [6, 9]: 2.5 times
Accumulation in tumors at 48 h ([6]; excised tumors, gamma counter, 48 h after i.v. injection, N=6, SEM): 26±3 % ID/g
Increase in tumor accumulation by LinTT1 functionalization [6]: > 70%
Increase in tumor accumulation by LinTT1 functionalization ([6]; listed as LinTT1-polymersomes): about 70%
Injected polymersomes (124I) remaining in the body after 48 h [7]: 45%
Injected polymersomes (124I) remaining in the body at 24 h [7]: 67%

AKRGARSTA [LinTT1]
Binding of the peptide to NRP-1 (NRP-1 [8]): does not bind
